This passage reports EC50 results from US8895504B2, “Amylin derivatives” (priority 2008, dated 2014).

This assay deals with T1, Amylin 3(a) receptor (human calcitonin receptor (CTa) and RAMP-3) (Homo sapiens, UniProt O60896+P30988).
T1 construct: expressed in transfected cells; host or cells: BHK570 cells, stably transfected with a CRE-luciferase reporter
In words: Luciferase assay (III), BHK Amylin 3(a)//CRE-luc cells. It counts as cell-based. As to conditions: BHK cells with Amylin 3(a) receptor and CRE luciferase reporter, 4 hours incubation; read-out: Potency Luciferase. In a few lines: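 BHK570 cells stably expressing CTa, RAMP-3 and a CRE-luciferase reporter, seeded at about 20,000 cells/well and grown overnight. Cells were exposed to standard or sample for 4 h at 37° C in phenol red-free DMEM with 10% FBS and 10 mM Hepes, pH 7,4. Luminescence was read after 30 min LucLite at room temperature.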

Structures are written as SMILES. *1 amine or outer side, *2 acyl side, *3 side chain or, on linkers, in order; H or OH if unused. Where a SMILES comes first, the peptide text is derived from it. Bridges are numbered along the chain shown (N, C = ends). The star is where a group is joined. C20 diacid = O=C(O)CCCCCCCCCCCCCCCCCCC(=O)*; γGlu = O=C(O)[C@H](CCC(=O)[*:2])N[*:1]; AEEA = NCCOCCOCC(=O)O

T1 sequence (O60896 24-148): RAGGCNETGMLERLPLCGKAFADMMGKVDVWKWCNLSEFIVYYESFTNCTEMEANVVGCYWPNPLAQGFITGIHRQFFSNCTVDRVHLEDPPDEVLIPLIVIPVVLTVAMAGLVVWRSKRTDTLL
T1 sequence (P30988 25-474): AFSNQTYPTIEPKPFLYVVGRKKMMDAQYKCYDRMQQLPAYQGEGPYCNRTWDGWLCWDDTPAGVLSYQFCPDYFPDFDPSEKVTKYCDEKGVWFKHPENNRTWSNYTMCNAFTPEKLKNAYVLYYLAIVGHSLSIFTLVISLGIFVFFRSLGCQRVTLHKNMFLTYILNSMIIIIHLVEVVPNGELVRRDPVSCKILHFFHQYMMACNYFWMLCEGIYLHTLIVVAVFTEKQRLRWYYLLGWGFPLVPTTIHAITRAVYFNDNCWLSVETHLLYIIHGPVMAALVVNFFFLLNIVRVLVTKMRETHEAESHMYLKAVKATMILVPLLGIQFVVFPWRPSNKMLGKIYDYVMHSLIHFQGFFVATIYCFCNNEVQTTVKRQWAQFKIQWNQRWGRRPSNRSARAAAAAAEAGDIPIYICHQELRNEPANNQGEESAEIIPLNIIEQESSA

`CC[C@H](C)[C@H](NC(=O)[C@@H]1CCCN1C(=O)CNC(=O)[C@H](Cc1ccccc1)NC(=O)[C@H](CC(N)=O)NC(=O)[C@H](CC(N)=O)NC(=O)[C@H](CO)NC(=O)[C@H](CO)NC(=O)[C@H](Cc1c[nH]cn1)NC(=O)[C@H](Cc1c[nH]cn1)NC(=O)[C@H](CC(C)C)NC(=O)[C@H](Cc1ccccc1)NC(=O)[C@H](CC(N)=O)NC(=O)[C@H](C)NC(=O)[C@H](CC(C)C)NC(=O)[C@H](CCCNC(=N)N)NC(=O)[C@H](CCC(N)=O)NC(=O)[C@@H](NC(=O)[C@H](C)NC(=O)[C@@H]1CSSC[C@H](NC(=O)[C@H](CCCNC(=N)N)NC(=O)[C@H](Cc2c[nH]cn2)NC(=O)[C@H](CCCNC(=N)N)NC(=O)CC[C@H](NC(=O)CCCCCCCCCCCCCCCCCCC(=O)O)C(=O)O)C(=O)N[C@@H](CC(N)=O)C(=O)N[C@@H]([C@@H](C)O)C(=O)N[C@@H](C)C(=O)N[C@@H]([C@@H](C)O)C(=O)N1)[C@@H](C)O)C(=O)N[C@@H](CC(C)C)C(=O)N1CCC[C@H]1C(=O)N1CCC[C@H]1C(=O)N[C@H](C(=O)N[C@@H](CC(N)=O)C(=O)N[C@H](C(=O)NCC(=O)N[C@@H](CO)C(=O)N[C@@H](CC(N)=O)C(=O)N[C@H](C(=O)N[C@@H](Cc1ccc(O)cc1)C(N)=O)[C@@H](C)O)C(C)C)[C@@H](C)O` [Example 70, N-alpha-[(S)-4-Carboxy-4-(19-carboxynonadecanoylamino)butyryl]-Arg-His[Arg1,His17]-pramlintide] ({C20 diacid-γGlu}-RHRCNTATCATQRLANFLHHSSNNFGPILPPTNVGSNTY-NH2; disulfide 4-9): the EC50 came to 0.1 nM.
As for `CC[C@H](C)[C@H](NC(=O)[C@@H]1CCCN1C(=O)CNC(=O)[C@H](Cc1ccccc1)NC(=O)[C@H](CC(N)=O)NC(=O)[C@H](CCC(N)=O)NC(=O)[C@H](CO)NC(=O)[C@H](CO)NC(=O)[C@H](Cc1c[nH]cn1)NC(=O)[C@H](CCCNC(=N)N)NC(=O)[C@H](CC(C)C)NC(=O)[C@H](Cc1ccccc1)NC(=O)[C@H](CC(N)=O)NC(=O)[C@H](C)NC(=O)[C@H](CC(C)C)NC(=O)[C@H](CCCNC(=N)N)NC(=O)[C@H](CCC(N)=O)NC(=O)[C@@H](NC(=O)[C@H](C)NC(=O)[C@@H]1CSSC[C@H](NC(=O)[C@H](CCCNC(=N)N)NC(=O)[C@H](Cc2c[nH]cn2)NC(=O)[C@H](Cc2c[nH]cn2)NC(=O)COCCOCCNC(=O)CC[C@H](NC(=O)CCCCCCCCCCCCCCCCCCC(=O)O)C(=O)O)C(=O)N[C@@H](CC(N)=O)C(=O)N[C@@H]([C@@H](C)O)C(=O)N[C@@H](C)C(=O)N[C@@H]([C@@H](C)O)C(=O)N1)[C@@H](C)O)C(=O)N[C@@H](CC(C)C)C(=O)N1CCC[C@H]1C(=O)N1CCC[C@H]1C(=O)N[C@H](C(=O)N[C@@H](CC(N)=O)C(=O)N[C@H](C(=O)NCC(=O)N[C@@H](CO)C(=O)N[C@@H](CC(N)=O)C(=O)N[C@H](C(=O)N[C@@H](Cc1ccc(O)cc1)C(N)=O)[C@@H](C)O)C(C)C)[C@@H](C)O` [Example 65, N-alpha-[2-(2-{2-[4-(S)-Carboxy-4-(19-carboxynonadecanoylamino)butyrylamino]ethoxy}ethoxy)acetyl]-His-His-[Arg1,Arg17,Gln21]-pramlintide] ({C20 diacid-γGlu-AEEA}-HHRCNTATCATQRLANFLRHSSQNFGPILPPTNVGSNTY-NH2; disulfide 4-9), the figure is 0.1 nM.
With `CC[C@H](C)[C@H](NC(=O)[C@@H]1CCCN1C(=O)CNC(=O)[C@H](Cc1ccccc1)NC(=O)[C@H](CC(N)=O)NC(=O)[C@H](CC(N)=O)NC(=O)[C@H](CO)NC(=O)[C@H](CO)NC(=O)[C@H](Cc1c[nH]cn1)NC(=O)[C@H](CCCNC(=N)N)NC(=O)[C@H](CC(C)C)NC(=O)[C@H](Cc1ccccc1)NC(=O)[C@H](CC(N)=O)NC(=O)[C@H](C)NC(=O)[C@H](CC(C)C)NC(=O)[C@H](CCCNC(=N)N)NC(=O)[C@H](CCC(N)=O)NC(=O)[C@@H](NC(=O)[C@H](C)NC(=O)[C@@H]1CSSC[C@H](NC(=O)[C@H](CCCNC(=N)N)NC(=O)[C@H](Cc2c[nH]cn2)NC(=O)[C@H](Cc2c[nH]cn2)NC(=O)[C@H](CCC(=O)O)NC(=O)CC[C@H](NC(=O)CCCCCCCCCCCCCCCCCCC(=O)O)C(=O)O)C(=O)N[C@@H](CC(N)=O)C(=O)N[C@@H]([C@@H](C)O)C(=O)N[C@@H](C)C(=O)N[C@@H]([C@@H](C)O)C(=O)N1)[C@@H](C)O)C(=O)N[C@@H](CC(C)C)C(=O)N1CCC[C@H]1C(=O)N1CCC[C@H]1C(=O)N[C@H](C(=O)N[C@@H](CC(N)=O)C(=O)N[C@H](C(=O)NCC(=O)N[C@@H](CO)C(=O)N[C@@H](CC(N)=O)C(=O)N[C@H](C(=O)N[C@@H](Cc1ccc(O)cc1)C(N)=O)[C@@H](C)O)C(C)C)[C@@H](C)O` [Example 58, N-alpha-[(S)-4-Carboxy-4-(19-carboxynonadecanoylamino)butyryl]-Glu-His-His-[Arg1,Arg17]-pramlintide] ({C20 diacid-γGlu}-EHHRCNTATCATQRLANFLRHSSNNFGPILPPTNVGSNTY-NH2; disulfide 5-10) the figure was 0.2 nM; with `CC[C@H](C)[C@H](NC(=O)[C@@H]1CCCN1C(=O)CNC(=O)[C@H](Cc1ccccc1)NC(=O)[C@H](CC(N)=O)NC(=O)[C@H](CC(N)=O)NC(=O)[C@H](CO)NC(=O)[C@H](CO)NC(=O)[C@H](Cc1c[nH]cn1)NC(=O)[C@H](Cc1c[nH]cn1)NC(=O)[C@H](CC(C)C)NC(=O)[C@H](Cc1ccccc1)NC(=O)[C@H](CC(N)=O)NC(=O)[C@H](C)NC(=O)[C@H](CC(C)C)NC(=O)[C@H](CCCNC(=N)N)NC(=O)[C@H](CCC(N)=O)NC(=O)[C@@H](NC(=O)[C@H](C)NC(=O)[C@@H]1CSSC[C@H](NC(=O)[C@H](CCCNC(=N)N)NC(=O)[C@H](Cc2c[nH]cn2)NC(=O)[C@H](CCCNC(=N)N)NC(=O)[C@H](CCC(=O)O)NC(=O)CC[C@H](NC(=O)CCCCCCCCCCCCCCCCCCC(=O)O)C(=O)O)C(=O)N[C@@H](CC(N)=O)C(=O)N[C@@H]([C@@H](C)O)C(=O)N[C@@H](C)C(=O)N[C@@H]([C@@H](C)O)C(=O)N1)[C@@H](C)O)C(=O)N[C@@H](CC(C)C)C(=O)N1CCC[C@H]1C(=O)N1CCC[C@H]1C(=O)N[C@H](C(=O)N[C@@H](CC(N)=O)C(=O)N[C@H](C(=O)NCC(=O)N[C@@H](CO)C(=O)N[C@@H](CC(N)=O)C(=O)N[C@H](C(=O)N[C@@H](Cc1ccc(O)cc1)C(N)=O)[C@@H](C)O)C(C)C)[C@@H](C)O` [Example 69, N-alpha-[(S)-4-Carboxy-4-(19-carboxynonadecanoylamino)butyryl]-Glu-Arg-His-[Arg1,His17]-pramlintide] ({C20 diacid-γGlu}-ERHRCNTATCATQRLANFLHHSSNNFGPILPPTNVGSNTY-NH2; disulfide 5-10), 0.1 nM.
